Here are results for 20 molecules from patent US11584714B2 (priority 2018, dated 2023).

Where a name gives a salt, the structure may show the parent alone. Read-outs that look alike come from different tables or passages of the source.

Type in all cases: biochemical
The target of one assay is MASP-2 (CCP1-CCP2-SP) (Homo sapiens (Human), UniProt O00187). The assay can be described thus: biochemical. To be noted: for MASP-2 vs. thrombin selectivity: selectivity for MASP-2 inhibition versus thrombin.
Sequence of MASP-2 (CCP1-CCP2-SP) (O00187 445-686): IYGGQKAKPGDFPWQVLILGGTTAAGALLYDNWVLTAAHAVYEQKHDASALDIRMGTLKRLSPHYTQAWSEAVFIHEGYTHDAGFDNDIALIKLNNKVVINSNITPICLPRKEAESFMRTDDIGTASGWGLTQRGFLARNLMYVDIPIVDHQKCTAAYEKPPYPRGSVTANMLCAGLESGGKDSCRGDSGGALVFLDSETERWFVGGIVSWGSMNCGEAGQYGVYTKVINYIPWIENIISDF
A further assay has as its target human α-thrombin (Homo sapiens (Human), UniProt P00734). The assay can be described thus: Enzymatic assay for thrombin (Boc-VPR-AMC substrate).
A further assay has as its target mMASP-2 (Mus musculus (Mouse), UniProt Q91WP0). The assay can be described thus: Enzymatic inhibition of mMASP-2. To be noted: read-out: mMASP-2 Ki.

Sequence of mMASP-2 (Q91WP0 20-685): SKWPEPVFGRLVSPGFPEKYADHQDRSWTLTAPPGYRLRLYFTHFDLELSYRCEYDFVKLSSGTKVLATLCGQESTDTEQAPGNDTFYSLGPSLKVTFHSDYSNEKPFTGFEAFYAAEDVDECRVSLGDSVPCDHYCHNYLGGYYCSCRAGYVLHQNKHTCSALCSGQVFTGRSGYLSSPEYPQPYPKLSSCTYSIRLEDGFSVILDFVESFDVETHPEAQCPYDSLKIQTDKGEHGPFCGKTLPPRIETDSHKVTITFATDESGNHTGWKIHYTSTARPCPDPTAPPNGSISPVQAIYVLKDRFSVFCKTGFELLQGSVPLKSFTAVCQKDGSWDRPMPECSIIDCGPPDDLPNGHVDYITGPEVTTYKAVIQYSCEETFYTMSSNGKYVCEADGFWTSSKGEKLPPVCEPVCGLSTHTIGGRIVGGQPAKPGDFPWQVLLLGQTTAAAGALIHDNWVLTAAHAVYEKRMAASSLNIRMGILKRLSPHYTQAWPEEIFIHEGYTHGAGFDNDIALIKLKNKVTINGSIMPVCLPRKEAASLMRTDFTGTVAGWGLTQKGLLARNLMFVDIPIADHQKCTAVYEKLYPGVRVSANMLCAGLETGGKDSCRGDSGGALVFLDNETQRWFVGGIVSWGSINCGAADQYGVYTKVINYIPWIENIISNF

On to `Cc1nc(N)ccc1CNC(=O)[C@H](C)NC(=O)[C@H]1C[C@H](Cc2ccc(-c3ccccc3)cc2)CN1` [compound 1351, (2R,4S)-4-([1,1′-Biphenyl]-4-ylmethyl)-N-((S)-1-(((6-amino-2-methylpyridin-3-yl)methyl)amino)-1-oxopropan-2-yl)pyrrolidine-2-carboxamide Dihydrochloride], for which the values for the Ki on MASP-2 (CCP1-CCP2-SP) (read-out: MASP-2 Ki), at human α-thrombin (read-out: Thrombin Ki) and on mMASP-2 were less than 500 nM, more than 25 µM and less than 500 nM, respectively. Also, on MASP-2 (CCP1-CCP2-SP), the “MASP-2 vs. thrombin selectivity” value is listed as “**** (≥100-fold)”.

For `Cc1nc(N)ccc1CNC(=O)[C@H](C)NC(=O)[C@@H]1C[C@H](Cc2ccccc2)CCN1` [compound 1354, (2S,4R)—N—((S)-1-(((6-Amino-2-methylpyridin-3-yl)methyl)amino)-1-oxopropan-2-yl)-4-benzylpiperidine-2-carboxamide Dihydrochloride], the Ki was less than 500 nM on MASP-2 (CCP1-CCP2-SP) (read-out: MASP-2 Ki), 2.5 to 10 µM at human α-thrombin (Thrombin Ki (μM)) and 500 to 2500 nM at mMASP-2. Also, the “MASP-2 vs. thrombin selectivity” value on MASP-2 (CCP1-CCP2-SP) is given as “*** (≥25 to <100-fold)”.

Take `Cc1cc(Br)cc(CNC(=O)[C@H](C)NC(=O)[C@H](N)CCc2ccccc2)c1O` [compound 1355, (R)-2-amino-N—((S)-1-((5-bromo-2-hydroxy-3-methylbenzyl)amino)-1-oxopropan-2-yl)-4-phenylbutanamide Trifluoroacetate salt]: the Ki on MASP-2 (CCP1-CCP2-SP) (read-out: MASP-2 Ki) is less than 500 nM; at human α-thrombin (read-out: Thrombin Ki), more than 25 µM; at mMASP-2, 10000 to 25000 nM.

`C[C@H](NC(=O)[C@H]1C[C@H](Cc2ccc(-c3ccccc3)cc2)CN1)C(=O)NCc1cnc2[nH]cc(Cl)c2c1` [compound 1356, (2R,4S)-4-([1,1′-Biphenyl]-4-ylmethyl)-N-((S)-1-(((3-chloro-1H-pyrrolo[2,3-b]pyridin-5-yl)methyl)amino)-1-oxopropan-2-yl)pyrrolidine-2-carboxamide Di-trifluoroacetate salt]: the Ki at MASP-2 (CCP1-CCP2-SP) (read-out: MASP-2 Ki) is less than 500 nM; on human α-thrombin (read-out: Thrombin Ki), more than 25 µM; on mMASP-2 it was less than 500 nM. Moreover, on MASP-2 (CCP1-CCP2-SP), the “MASP-2 vs. thrombin selectivity” value is “**** (≥100-fold)”.

With `Cc1nc(N)ccc1CNC(=O)[C@H](C)NC(=O)[C@H]1C[C@H](Cc2ccc(-c3cccnc3)cc2)CN1` [compound 1357, (2R,4S)—N—((S)-1-(((6-Amino-2-methylpyridin-3-yl)methyl)amino)-1-oxopropan-2-yl)-4-(4-(pyridin-3-yl)benzyl)pyrrolidine-2-carboxamide Di-trifluoroacetate salt], the results for the Ki on MASP-2 (CCP1-CCP2-SP) (read-out: MASP-2 Ki), at human α-thrombin (read-out: Thrombin Ki) and on mMASP-2 were less than 500 nM, more than 25 µM and less than 500 nM, respectively. Further, on MASP-2 (CCP1-CCP2-SP), the “MASP-2 vs. thrombin selectivity” value is given as “**** (≥100-fold)”.

On to `C[C@H](NC(=O)[C@H]1C[C@H](c2ccccc2)CN1)C(=O)NCc1cc(Cl)cnc1N` [compound 1358, (2R,4R)—N—((S)-1-(((2-Amino-5-chloropyridin-3-yl)methyl)amino)-1-oxopropan-2-yl)-4-phenylpyrrolidine-2-carboxamide Di-trifluoroacetate salt], for which the values for the inhibitory constant (Ki) on MASP-2 (CCP1-CCP2-SP), at human α-thrombin (read-out: Thrombin Ki) and on mMASP-2 were 500 to 2500 nM, more than 25 µM and more than 25000 nM, respectively.

Take `C[C@H](NC(=O)[C@H]1C[C@H](c2ccccc2)CN1)C(=O)NCc1ccc2[nH]cc(Cl)c2c1` [compound 1362, (2R,4R)—N—((S)-1-(((3-Chloro-1H-indol-5-yl)methyl)amino)-1-oxopropan-2-yl)-4-phenylpyrrolidine-2-carboxamide]: the Ki on MASP-2 (CCP1-CCP2-SP) lay in the range of 500 to 2500 nM; at human α-thrombin (Thrombin Ki (μM)), 0.5 to 2.5 µM; on mMASP-2, 500 to 2500 nM. In addition, the “MASP-2 vs. thrombin selectivity” value on MASP-2 (CCP1-CCP2-SP) is reported as “* (≥1.0 to <5.0-fold)”.

`C[C@H](NC(=O)[C@H]1C[C@H](c2ccccc2)CN1)C(=O)NCc1cc(O)cc(Cl)c1` [compound 1364, (2R,4R)—N—((S)-1-((3-Chloro-5-hydroxybenzyl)amino)-1-oxopropan-2-yl)-4-phenylpyrrolidine-2-carboxamide Hydrochloride]: the Ki on MASP-2 (CCP1-CCP2-SP) is 500 to 2500 nM; at human α-thrombin (read-out: Thrombin Ki), more than 25 µM; at mMASP-2, 10000 to 25000 nM.

As for `Cc1cc(Cl)cc(CNC(=O)[C@H](C)NC(=O)[C@H]2C[C@@H](c3ccccc3)CCN2)c1O` [compound 1365, (2R,4S)—N—((S)-1-((5-Chloro-2-hydroxy-3-methylbenzyl)amino)-1-oxopropan-2-yl)-4-phenylpiperidine-2-carboxamide Hydrochloride], the Ki at MASP-2 (CCP1-CCP2-SP) (read-out: MASP-2 Ki) was less than 500 nM; at human α-thrombin (read-out: Thrombin Ki) it was more than 25 µM; on mMASP-2 it was less than 500 nM. Also, the “MASP-2 vs. thrombin selectivity” value on MASP-2 (CCP1-CCP2-SP) is reported as “**** (≥100-fold)”.

For `C[C@H](NC(=O)[C@H]1C[C@H](c2ccccc2)CN1)C(=O)NCc1ccn2ccnc2c1` [compound 1366, (2R,4R)—N—((S)-1-((Imidazo[1,2-a]pyridin-7-ylmethyl)amino)-1-oxopropan-2-yl)-4-phenylpyrrolidine-2-carboxamide Dihydrochloride], the inhibition constant (Ki) was 2500 to 10000 nM on MASP-2 (CCP1-CCP2-SP), more than 25 µM at human α-thrombin (read-out: Thrombin Ki) and 2500 to 10000 nM on mMASP-2.

Turning to `Cc1nc(N)ccc1CNC(=O)[C@H](C)NC(=O)c1cc(Cc2ccccc2)n[nH]1` [compound 1367, (S)—N-(1-(((6-Amino-2-methylpyridin-3-yl)methyl)amino)-1-oxopropan-2-yl)-3-benzyl-1H-pyrazole-5-carboxamide], the Ki on MASP-2 (CCP1-CCP2-SP) (read-out: MASP-2 Ki) is less than 500 nM; on human α-thrombin (read-out: Thrombin Ki), more than 25 µM; at mMASP-2, 10000 to 25000 nM.

On to `CC(=O)Nc1ccc(CCN[C@H](CCc2ccccc2)C(=O)N[C@@H](C)C(=O)NCc2ccc(N)nc2C)cc1` [compound 1368, (R)-2-((4-Acetamidophenethyl)amino)-N-((S)-1-(((6-amino-2-methylpyridin-3-yl)methyl)amino)-1-oxopropan-2-yl)-4-phenylbutanamide Dihydrochloride], for which the Ki at MASP-2 (CCP1-CCP2-SP) was 500 to 2500 nM; on human α-thrombin (read-out: Thrombin Ki), more than 25 µM; at mMASP-2 it was 10000 to 25000 nM. The “MASP-2 vs. thrombin selectivity” value at MASP-2 (CCP1-CCP2-SP) is “** (≥5.0 to <25-fold)”.

`Cc1cccc(C[C@@H]2CN[C@@H](C(=O)N[C@@H](C)C(=O)NCc3cc(Cl)cc(C)c3O)C2)c1` [compound 1369, (2R,4S)—N—((S)-1-((5-Chloro-2-hydroxy-3-methylbenzyl)amino)-1-oxopropan-2-yl)-4-(3-methylbenzyl)pyrrolidine-2-carboxamide Hydrochloride]: the results for the Ki on MASP-2 (CCP1-CCP2-SP) (read-out: MASP-2 Ki), at human α-thrombin (read-out: Thrombin Ki) and on mMASP-2 were less than 500 nM, more than 25 µM and less than 500 nM, respectively. In addition, the “MASP-2 vs. thrombin selectivity” value at MASP-2 (CCP1-CCP2-SP) is reported as “**** (≥100-fold)”.

In the case of `Cc1nc(N)ccc1CNC(=O)[C@H](C)NC(=O)[C@H]1C[C@H](Cc2ccccc2-c2ccccc2)CN1` [compound 1373, (2R,4S)-4-([1,1′-Biphenyl]-2-ylmethyl)-N-((S)-1-(((6-amino-2-methylpyridin-3-yl)methyl)amino)-1-oxopropan-2-yl)pyrrolidine-2-carboxamide Di-trifluoroacetate salt], the Ki was less than 500 nM at MASP-2 (CCP1-CCP2-SP) (read-out: MASP-2 Ki), 0.5 to 2.5 µM at human α-thrombin (Thrombin Ki (μM)) and less than 500 nM at mMASP-2. Besides, at MASP-2 (CCP1-CCP2-SP), the “MASP-2 vs. thrombin selectivity” value is “*** (≥25 to <100-fold)”.

With `Cc1cc(Cl)cc(CNC(=O)[C@H](C)NC(=O)[C@H]2C[C@H](Cc3ccc(Br)cc3)CN2)c1O` [compound 1374, (2R,4S)-4-(4-bromobenzyl)-N-((S)-1-((5-chloro-2-hydroxy-3-methylbenzyl)amino)-1-oxopropan-2-yl)pyrrolidine-2-carboxamide Hydrochloride], the inhibitory constant (Ki) was less than 500 nM on MASP-2 (CCP1-CCP2-SP) (read-out: MASP-2 Ki), more than 25 µM at human α-thrombin (read-out: Thrombin Ki) and less than 500 nM at mMASP-2.

With `CCCCCN[C@H](CCc1ccccc1)C(=O)N[C@@H](C)C(=O)NCc1ccc(N)nc1C` [compound 1377, (R)—N—((S)-1-(((6-Amino-2-methylpyridin-3-yl)methyl)amino)-1-oxopropan-2-yl)-2-(pentylamino)-4-phenylbutanamide Di-trifluoroacetate salt], the Ki on MASP-2 (CCP1-CCP2-SP) is 500 to 2500 nM; on human α-thrombin (Thrombin Ki (μM)) it was 10 to 25 µM; at mMASP-2, more than 25000 nM. In addition, at MASP-2 (CCP1-CCP2-SP), the “MASP-2 vs. thrombin selectivity” value is “** (≥5.0 to <25-fold)”.

With `Cc1nc(N)ccc1CNC(=O)[C@H](C)NC(=O)[C@H]1C[C@H](Cc2ccc(C3CCC3)cc2)CN1` [compound 1379, (2R,4S)—N—((S)-1-(((6-Amino-2-methylpyridin-3-yl)methyl)amino)-1-oxopropan-2-yl)-4-(4-cyclobutylbenzyl)pyrrolidine-2-carboxamide Di-trifluoroacetate salt], the results for the Ki on MASP-2 (CCP1-CCP2-SP) (read-out: MASP-2 Ki), on human α-thrombin (read-out: Thrombin Ki) and at mMASP-2 were less than 500 nM, more than 25 µM and less than 500 nM, respectively. In addition, the “MASP-2 vs. thrombin selectivity” value at MASP-2 (CCP1-CCP2-SP) is given as “**** (≥100-fold)”.

In the case of `Cc1nc(N)ccc1CNC(=O)[C@H](C)NC(=O)[C@@H](CCc1ccccc1)NCc1ccc(C(=O)N2CCOCC2)cc1` [compound 1381, (R)—N—((S)-1-(((6-Amino-2-methylpyridin-3-yl)methyl)amino)-1-oxopropan-2-yl)-2-((4-(morpholine-4-carbonyl)benzyl)amino)-4-phenylbutanamide Di-trifluoroacetate salt], the Ki at MASP-2 (CCP1-CCP2-SP) lay in the range of 500 to 2500 nM; on human α-thrombin (Thrombin Ki (μM)), 10 to 25 µM; at mMASP-2, 10000 to 25000 nM. Further, the “MASP-2 vs. thrombin selectivity” value on MASP-2 (CCP1-CCP2-SP) is “** (≥5.0 to <25-fold)”.

In the case of `C[C@H](NC(=O)[C@H]1C[C@H](c2ccccc2)CN1)C(=O)NCc1cnc2[nH]nc(Cl)c2c1` [compound 1384, (2R,4R)—N—((S)-1-(((3-Chloro-1H-pyrazolo[3,4-b]pyridin-5-yl)methyl)amino)-1-oxopropan-2-yl)-4-phenylpyrrolidine-2-carboxamide Dihydrochloride], the Ki at MASP-2 (CCP1-CCP2-SP) is 10000 to 25000 nM; at human α-thrombin (read-out: Thrombin Ki), more than 25 µM; on mMASP-2 it was more than 25000 nM. Moreover, the “MASP-2 vs. thrombin selectivity” value at MASP-2 (CCP1-CCP2-SP) is listed as “* (≥1.0 to <5.0-fold)”.

In the case of `C[C@H](NC(=O)[C@H]1C[C@H](Cc2ccc3ccccc3c2)CN1)C(=O)NCc1cc(Cl)ccc1-n1cnnn1` [compound 1385, (2R,4S)—N—((S)-1-((5-chloro-2-(1H-tetrazol-1-yl)benzyl)amino)-1-oxopropan-2-yl)-4-(naphthalen-2-ylmethyl)pyrrolidine-2-carboxamide Trifluoroacetate salt], the results for the Ki on MASP-2 (CCP1-CCP2-SP) (read-out: MASP-2 Ki), at human α-thrombin (read-out: Thrombin Ki) and on mMASP-2 were less than 500 nM, less than 0.5 µM and less than 500 nM, respectively. Moreover, the “MASP-2 vs. thrombin selectivity” value on MASP-2 (CCP1-CCP2-SP) is given as “** (≥5.0 to <25-fold)”.

By Ki is commonly meant the equilibrium dissociation constant of an inhibitor or competing ligand from its target.
